Reference: PubChem BioAssay AID1745844 (Carcinogenic Potency Database (CPDB), 2022)
Activity calls are given as the source filed them. How the calls were made is not given here.

System: rodent lifetime carcinogenesis bioassay, tumor incidence TD50
Assay: carcinogenic potency in animals, long-term in vivo studies, CPDB compilation (AID 1745844)
[1] = rat, strain Fischer 344, males, in feed, site: any site (literature study), lesion: several types, types named in the paper, dosed 78 weeks, study length 104 weeks
[2] = rat, strain Fischer 344, females, in feed, site: any site (literature study), lesion: several types, types named in the paper, dosed 13 weeks, study length 13 weeks
[3] = rat, strain Fischer 344, females, in feed, site: liver, lesion: hepatocellular adenoma + hepatocellular carcinoma + neoplastic nodule, dosed 13 weeks, study length 13 weeks
[4] = rat, strain Fischer 344, males, in feed, site: any site (literature study), lesion: several types, types named in the paper, dosed 13 weeks, study length 13 weeks

SMILES: C#CC1(O)CC[C@H]2[C@@H]3CCC4=CCCC[C@@H]4[C@H]3CC[C@@]21C (some centres not stated)
- TD50 (dog, strain Beagle, females, in feed, site: mammary gland, lesion: carcinoma, dosed 364 weeks, study length 364 weeks): 0.58 mg/kg/day

SMILES: Nc1ccc(Oc2ccc(N)c(N)c2)cc1
- TD50 (mouse, strain ICR/Jcl, males, in feed, site: liver, lesion: hepatoma, dosed 52 weeks, study length 52 weeks): 13.3 mg/kg/day

SMILES: C=CCc1ccc(O)c(OC)c1
- TD50 (mouse, strain B6C3F1, females, in feed, site: liver, lesion: hepatocellular adenoma + hepatocellular carcinoma + neoplastic nodule, dosed 103 weeks, study length 104 weeks): 2910 mg/kg/day
- TD50 (mouse, strain B6C3F1, females, in feed, site: liver, lesion: hepatocellular adenoma + hepatocellular carcinoma, dosed 103 weeks, study length 104 weeks): 2910 mg/kg/day
- TD50 (mouse, strain B6C3F1, females, in feed, site: lung, lesion: alveolar/bronchiolar adenoma + alveolar/bronchiolar carcinoma, dosed 103 weeks, study length 104 weeks): 25300 mg/kg/day
- TD50 (mouse, strain B6C3F1, males, in feed, site: any site (literature study), lesion: several types, types named in the paper, dosed 103 weeks, study length 104 weeks): 1550 mg/kg/day
- TD50 (mouse, strain B6C3F1, males, in feed, site: liver, lesion: hepatocellular adenoma + hepatocellular carcinoma + neoplastic nodule, dosed 103 weeks, study length 104 weeks): 451 mg/kg/day
- TD50 (mouse, strain B6C3F1, males, in feed, site: liver, lesion: hepatocellular adenoma + hepatocellular carcinoma, dosed 103 weeks, study length 104 weeks): 451 mg/kg/day
- TD50 (mouse, strain B6C3F1, males, in feed, site: liver, lesion: hepatocellular adenoma, dosed 103 weeks, study length 104 weeks): 781 mg/kg/day
- TD50 (mouse, strain B6C3F1, males, in feed, site: liver, lesion: hepatocellular carcinoma, dosed 103 weeks, study length 104 weeks): 710 mg/kg/day
- TD50 (mouse, strain B6C3F1, males, in feed, site: thyroid gland, lesion: follicular-cell adenoma, dosed 103 weeks, study length 104 weeks): 8520 mg/kg/day
- carcinogen call (mouse, strain Charles River CD1, females, in feed, site: liver, lesion: one or several types, types not named, dosed 50 weeks, study length 78 weeks): negative (inactive)
- carcinogen call (mouse, strain Charles River CD1, females, in feed, site: lung, lesion: adenoma, dosed 50 weeks, study length 78 weeks): negative (inactive)
- carcinogen call (rat, strain Fischer 344, females, in feed, site: any site (literature study), lesion: several types, types named in the paper, dosed 103 weeks, study length 104 weeks): negative (inactive)
- TD50 (rat, strain Fischer 344, males, in feed, site: any site (literature study), lesion: several types, types named in the paper, dosed 103 weeks, study length 104 weeks): 293 mg/kg/day
- TD50 (rat, strain Fischer 344, males, in feed, site: lung, lesion: alveolar/bronchiolar adenoma + alveolar/bronchiolar carcinoma, dosed 103 weeks, study length 104 weeks): 424 mg/kg/day (inactive)

SMILES: Cc1ccc2c(c1N)C(=O)c1ccccc1C2=O
- TD50 (mouse, strain B6C3F1, females, in feed, site: liver, lesion: hepatocellular adenoma + hepatocellular carcinoma + neoplastic nodule, dosed 70 weeks, study length 97 weeks): 174 mg/kg/day
- TD50 (mouse, strain B6C3F1, females, in feed, site: liver, lesion: hepatocellular carcinoma + neoplastic nodule, dosed 70 weeks, study length 97 weeks): 174 mg/kg/day
- carcinogen call (mouse, strain B6C3F1, males, in feed, site: any site (literature study), lesion: several types, types named in the paper, dosed 70 weeks, study length 97 weeks): negative (inactive)
- TD50 (rat, strain Fischer 344, females, in feed, site: liver, lesion: hepatocellular adenoma + hepatocellular carcinoma + neoplastic nodule, dosed 78 weeks, study length 104 weeks): 115 mg/kg/day
- TD50 (rat, strain Fischer 344, females, in feed, site: liver, lesion: hepatocellular carcinoma + neoplastic nodule, dosed 78 weeks, study length 104 weeks): 115 mg/kg/day
- TD50 (rat, strain Fischer 344, females, in feed, site: liver, lesion: hepatocellular carcinoma, dosed 78 weeks, study length 104 weeks): 182 mg/kg/day
- TD50 [1]: 64.4 mg/kg/day
- TD50 (rat, strain Fischer 344, males, in feed, site: kidney + liver, lesion: adenocarcinoma, NOS + tubular-cell adenoma + tubular-cell adenocarcinoma + hepatocellular carcinoma + neoplastic nodule, dosed 78 weeks, study length 104 weeks): 34.1 mg/kg/day
- TD50 (rat, strain Fischer 344, males, in feed, site: kidney, lesion: adenocarcinoma, NOS + tubular-cell adenocarcinoma, dosed 78 weeks, study length 104 weeks): 441 mg/kg/day
- TD50 (rat, strain Fischer 344, males, in feed, site: kidney, lesion: adenocarcinoma, NOS + tubular-cell adenoma + tubular-cell adenocarcinoma, dosed 78 weeks, study length 104 weeks): 131 mg/kg/day
- TD50 (rat, strain Fischer 344, males, in feed, site: kidney, lesion: tubular-cell adenoma, dosed 78 weeks, study length 104 weeks): 196 mg/kg/day
- TD50 (rat, strain Fischer 344, males, in feed, site: liver, lesion: hepatocellular adenoma + hepatocellular carcinoma + neoplastic nodule, dosed 78 weeks, study length 104 weeks): 39.9 mg/kg/day
- TD50 (rat, strain Fischer 344, males, in feed, site: liver, lesion: hepatocellular carcinoma + neoplastic nodule, dosed 78 weeks, study length 104 weeks): 39.9 mg/kg/day
- TD50 (rat, strain Fischer 344, males, in feed, site: liver, lesion: hepatocellular carcinoma, dosed 78 weeks, study length 104 weeks): 150 mg/kg/day
- TD50 (rat, strain Fischer 344, males, in feed, site: pituitary gland, lesion: adenoma, NOS + chromophobe adenoma, dosed 78 weeks, study length 104 weeks): 136 mg/kg/day
- TD50 (rat, strain Fischer 344, males, in feed, site: thyroid gland, lesion: c-cell adenoma + c-cell carcinoma, dosed 78 weeks, study length 104 weeks): 283 mg/kg/day

SMILES: COC(=O)NN
- carcinogen call (rat, strain Wistar, females, in feed, site: any site (literature study), lesion: one or several types, types not named, dosed 104 weeks, study length 104 weeks): negative (inactive)
- carcinogen call (rat, strain Wistar, males, in feed, site: any site (literature study), lesion: one or several types, types not named, dosed 104 weeks, study length 104 weeks): negative (inactive)

SMILES: COC(C(=O)O)c1ccccc1 (configuration not stated)
- TD50 (mouse, strain B6AKF1, females, oral dosing, site: any site (literature study), lesion: several types, types named in the paper, dosed 76 weeks, study length 76 weeks): 227 mg/kg/day (inactive)
- carcinogen call (mouse, strain B6AKF1, females, oral dosing, site: liver, lesion: hepatoma, dosed 76 weeks, study length 76 weeks): negative (inactive)
- TD50 (mouse, strain B6AKF1, females, oral dosing, site: lung, lesion: adenoma, dosed 76 weeks, study length 76 weeks): 236 mg/kg/day (inactive)
- TD50 (mouse, strain B6AKF1, males, oral dosing, site: any site (literature study), lesion: several types, types named in the paper, dosed 76 weeks, study length 76 weeks): 139 mg/kg/day (inactive)
- TD50 (mouse, strain B6AKF1, males, oral dosing, site: liver, lesion: hepatoma, dosed 76 weeks, study length 76 weeks): 3620 mg/kg/day (inactive)
- TD50 (mouse, strain B6AKF1, males, oral dosing, site: lung, lesion: adenoma, dosed 76 weeks, study length 76 weeks): 157 mg/kg/day (inactive)
- TD50 (mouse, strain B6C3F1, females, oral dosing, site: any site (literature study), lesion: several types, types named in the paper, dosed 76 weeks, study length 76 weeks): 157 mg/kg/day (inactive)
- carcinogen call (mouse, strain B6C3F1, females, oral dosing, site: liver, lesion: hepatoma, dosed 76 weeks, study length 76 weeks): negative (inactive)
- TD50 (mouse, strain B6C3F1, females, oral dosing, site: lung, lesion: adenoma, dosed 76 weeks, study length 76 weeks): 244 mg/kg/day (inactive)
- TD50 (mouse, strain B6C3F1, males, oral dosing, site: all sites, lesion: reticulum-cell sarcoma, dosed 76 weeks, study length 76 weeks): 82.1 mg/kg/day (inactive)
- TD50 (mouse, strain B6C3F1, males, oral dosing, site: any site (literature study), lesion: several types, types named in the paper, dosed 76 weeks, study length 76 weeks): 54.2 mg/kg/day (inactive)
- TD50 (mouse, strain B6C3F1, males, oral dosing, site: liver, lesion: hepatoma, dosed 76 weeks, study length 76 weeks): 227 mg/kg/day (inactive)
- carcinogen call (mouse, strain B6C3F1, males, oral dosing, site: lung, lesion: several types, types named in the paper, dosed 76 weeks, study length 76 weeks): negative (inactive)

SMILES: Clc1ccc(Sc2cc(Cl)c(Cl)cc2Cl)cc1
- carcinogen call (rat, strain Wistar, females, in feed, site: liver, lesion: one or several types, types not named, dosed 104 weeks, study length 104 weeks): negative (inactive)
- carcinogen call (rat, strain Wistar, females, in feed, site: liver, lesion: one or several types, types not named, dosed 116 weeks, study length 116 weeks): negative (inactive)
- TD50 (rat, strain Wistar, males, in feed, site: liver, lesion: hepatoma, dosed 116 weeks, study length 116 weeks): 4590 mg/kg/day (inactive)
- carcinogen call (rat, strain Wistar, males, in feed, site: liver, lesion: one or several types, types not named, dosed 104 weeks, study length 104 weeks): negative (inactive)

SMILES: O=C([O-])c1cc(N=Nc2ccc(-c3ccc(N=Nc4c(O)ccc(N=Nc5cc(S(=O)(=O)[O-])ccc5[O-])c4[O-])cc3)cc2)ccc1O.[Cu+2].[Na+].[Na+]
- TD50 [2]: 2.07 mg/kg/day
- TD50 [3]: 2.07 mg/kg/day
- TD50 (rat, strain Fischer 344, females, in feed, site: liver, lesion: hepatocellular carcinoma + neoplastic nodule, dosed 13 weeks, study length 13 weeks): 2.07 mg/kg/day
- carcinogen call [4]: negative (inactive)

SMILES: NC(=S)NNS(=O)(=O)c1ccccc1
- TD50 (mouse, strain Swiss, females, by gavage, site: liver, lesion: liver-cell tumor, dosed 50 weeks, study length 60 weeks): 46.6 mg/kg/day
- TD50 (mouse, strain Swiss, females, by gavage, site: lung, lesion: one or several types, types not named, dosed 50 weeks, study length 60 weeks): 46.6 mg/kg/day

SMILES: Nc1ccc(N=Nc2ccc(-c3ccc(N=Nc4c(S(=O)(=O)O)cc5cc(S(=O)(=O)O)c(N=Nc6ccccc6)c(O)c5c4N)cc3)cc2)c(N)c1
- TD50 (mouse, strain ICR, both sexes, in drinking water, site: any site (literature study), lesion: several types, types named in the paper, dosed 57 weeks, study length 57 weeks): 32 mg/kg/day
- TD50 (mouse, strain ICR, both sexes, in drinking water, site: liver, lesion: hepatoma, dosed 57 weeks, study length 57 weeks): 71.6 mg/kg/day
- TD50 (mouse, strain ICR, both sexes, in drinking water, site: mammary gland, lesion: several types, types named in the paper, dosed 57 weeks, study length 57 weeks): 262 mg/kg/day
- TD50 [2]: 2.61 mg/kg/day
- TD50 [3]: 2.61 mg/kg/day
- TD50 (rat, strain Fischer 344, females, in feed, site: liver, lesion: neoplastic nodule, dosed 13 weeks, study length 13 weeks): 2.61 mg/kg/day
- TD50 [4]: 0.945 mg/kg/day
- TD50 (rat, strain Fischer 344, males, in feed, site: liver, lesion: hepatocellular adenoma + hepatocellular carcinoma + neoplastic nodule, dosed 13 weeks, study length 13 weeks): 0.945 mg/kg/day
- TD50 (rat, strain Fischer 344, males, in feed, site: liver, lesion: hepatocellular carcinoma + neoplastic nodule, dosed 13 weeks, study length 13 weeks): 0.945 mg/kg/day
- TD50 (rat, strain Fischer 344, males, in feed, site: liver, lesion: hepatocellular carcinoma, dosed 13 weeks, study length 13 weeks): 2.22 mg/kg/day

SMILES: Nc1ccc(Nc2ccccc2)cc1
- carcinogen call (mouse, strain B6C3F1, females, in feed, site: any site (literature study), lesion: several types, types named in the paper, dosed 48 weeks, study length 91 weeks): negative (inactive)
- carcinogen call (mouse, strain B6C3F1, males, in feed, site: any site (literature study), lesion: several types, types named in the paper, dosed 48 weeks, study length 91 weeks): negative (inactive)
- TD50 (mouse, strain B6C3F1, males, in feed, site: liver, lesion: hepatocellular adenoma + hepatocellular carcinoma + neoplastic nodule, dosed 48 weeks, study length 91 weeks): 213 mg/kg/day
- carcinogen call (rat, strain Fischer 344, females, in feed, site: any site (literature study), lesion: several types, types named in the paper, dosed 78 weeks, study length 104 weeks): negative (inactive)
- TD50 [1]: 161 mg/kg/day (inactive)
